{"source": "ChEMBL document CHEMBL1124217", "about": "“2,4-Diamino-5-benzylpyrimidines and analogues as antibacterial agents. 9. Lipophilic trimethoprim analogues as antigonococcal agents” (J Med Chem, 1988)", "key": {"Rattus norvegicus [1]": {"test_system": "Rattus norvegicus", "assay": "Conc in lung of male rat 24 hr after administration of dose", "assay_type": "functional, organism-based"}, "Staphylococcus aureus": {"test_system": "Staphylococcus aureus", "assay": "Inhibition of growth of Staphylococcus aureus (CN491) measured as MIC compound/MIC Trimethoprim", "assay_type": "functional"}, "Rattus norvegicus [2]": {"test_system": "Rattus norvegicus", "assay": "Conc in liver of male rat 6 hr after administration of dose", "assay_type": "functional, organism-based"}, "Rattus norvegicus [3]": {"test_system": "Rattus norvegicus", "assay": "Conc in ovary of female rat 2 hr after administration of dose", "assay_type": "functional, organism-based", "details": "Female gonad"}, "Rattus norvegicus [4]": {"test_system": "Rattus norvegicus", "assay": "Conc in liver of male rat after 0.25 hr administration of dose", "assay_type": "functional, organism-based"}, "Rattus norvegicus [5]": {"test_system": "Rattus norvegicus", "assay": "Conc in brain of male rat 1 hr after administration of dose", "assay_type": "functional, organism-based"}, "Rattus norvegicus [6]": {"test_system": "Rattus norvegicus", "assay": "Conc in muscle of male rat 1.5h after administration of dose", "assay_type": "functional, organism-based", "details": "Muscle tissue"}, "Rattus norvegicus [7]": {"test_system": "Rattus norvegicus", "assay": "Conc in serum of male rat 3h after administration of dose", "assay_type": "functional, organism-based"}, "Rattus norvegicus [8]": {"test_system": "Rattus norvegicus", "assay": "Conc in stomach of male rat 0.25 hr after administration of dose", "assay_type": "functional, organism-based"}, "Rattus norvegicus [9]": {"test_system": "Rattus norvegicus", "assay": "Conc in intestine of male rat 0.25 hr after administration of dose", "assay_type": "functional, organism-based"}, "Rattus norvegicus [10]": {"test_system": "Rattus norvegicus", "assay": "Conc in liver of male rat after 0.75h administration of dose", "assay_type": "functional, organism-based"}, "Rattus norvegicus [11]": {"test_system": "Rattus norvegicus", "assay": "Conc in ovary of female rat 3h after administration of dose", "assay_type": "functional, organism-based", "details": "Female gonad"}, "Rattus norvegicus [12]": {"test_system": "Rattus norvegicus", "assay": "Conc in stomach of male rat 0.50 hr after administration of dose", "assay_type": "functional, organism-based"}, "Rattus norvegicus [13]": {"test_system": "Rattus norvegicus", "assay": "Conc in ovary of female rat 10h after administration of dose", "assay_type": "functional, organism-based", "details": "Female gonad"}, "Rattus norvegicus [14]": {"test_system": "Rattus norvegicus", "assay": "Conc in testes of male rat 24 hr after administration of dose", "assay_type": "functional, organism-based", "details": "Testis"}, "Rattus norvegicus [15]": {"test_system": "Rattus norvegicus", "assay": "Conc in intestine of male rat 1 hr after administration of dose", "assay_type": "functional, organism-based"}, "Rattus norvegicus [16]": {"test_system": "Rattus norvegicus", "assay": "Conc in muscle of male rat 0.75h after administration of dose", "assay_type": "functional, organism-based", "details": "Muscle tissue"}, "Klebsiella pneumoniae": {"test_system": "Klebsiella pneumoniae", "assay": "Inhibition of growth of Klebsiella pneumoniae (CN3632) measured as MIC compound/MIC Trimethoprim", "assay_type": "functional"}, "Neisseria gonorrhoeae": {"test_system": "Neisseria gonorrhoeae", "assay": "Inhibition of growth of Neisseria gonorrhoeae", "assay_type": "functional"}, "Rattus norvegicus [17]": {"test_system": "Rattus norvegicus", "assay": "Conc in kidney of male rat 6 hr after administration of dose", "assay_type": "functional, organism-based"}, "Rattus norvegicus [18]": {"test_system": "Rattus norvegicus", "assay": "Conc in stomach of male rat 24 hr after administration of dose", "assay_type": "functional, organism-based"}, "Rattus norvegicus [19]": {"test_system": "Rattus norvegicus", "assay": "Conc in muscle of male rat 1 hr after administration of dose", "assay_type": "functional, organism-based", "details": "Muscle tissue"}, "Rattus norvegicus [20]": {"test_system": "Rattus norvegicus", "assay": "Conc in kidney of male rat 10h after administration of dose", "assay_type": "functional, organism-based"}, "Rattus norvegicus [21]": {"test_system": "Rattus norvegicus", "assay": "Conc in serum of male rat 1 hr after administration of dose", "assay_type": "functional, organism-based"}, "Rattus norvegicus [22]": {"test_system": "Rattus norvegicus", "assay": "Conc in brain of male rat 1.5h after administration of dose", "assay_type": "functional, organism-based"}, "Rattus norvegicus [23]": {"test_system": "Rattus norvegicus", "assay": "Conc in ovary of female rat 6 hr after administration of dose", "assay_type": "functional, organism-based", "details": "Female gonad"}, "Rattus norvegicus [24]": {"test_system": "Rattus norvegicus", "assay": "Conc in kidney of male rat after 0.75h administration of dose", "assay_type": "functional, organism-based"}, "Rattus norvegicus [25]": {"test_system": "Rattus norvegicus", "assay": "Conc in serum of female rat 3h after administration of dose", "assay_type": "functional, organism-based"}, "Rattus norvegicus [26]": {"test_system": "Rattus norvegicus", "assay": "Conc in lung of male rat 1.5h after administration of dose", "assay_type": "functional, organism-based"}, "Rattus norvegicus [27]": {"test_system": "Rattus norvegicus", "assay": "Conc in testes of male rat 0.50 hr after administration of dose", "assay_type": "functional, organism-based", "details": "Testis"}, "Rattus norvegicus [28]": {"test_system": "Rattus norvegicus", "assay": "Conc in intestine of male rat 0.75h after administration of dose", "assay_type": "functional, organism-based"}, "Rattus norvegicus [29]": {"test_system": "Rattus norvegicus", "assay": "Conc in muscle of male rat 4 hr after administration of dose", "assay_type": "functional, organism-based", "details": "Muscle tissue"}, "Rattus norvegicus [30]": {"test_system": "Rattus norvegicus", "assay": "Conc in serum of female rat 6 hr after administration of dose", "assay_type": "functional, organism-based"}, "Rattus norvegicus [31]": {"test_system": "Rattus norvegicus", "assay": "Conc in serum of female rat 2 hr after administration of dose", "assay_type": "functional, organism-based"}, "Rattus norvegicus [32]": {"test_system": "Rattus norvegicus", "assay": "Conc in muscle of male rat 0.25 hr after administration of dose", "assay_type": "functional, organism-based", "details": "Muscle tissue"}, "Rattus norvegicus [33]": {"test_system": "Rattus norvegicus", "assay": "Conc in lung of male rat 0.50 hr after administration of dose", "assay_type": "functional, organism-based"}, "Escherichia coli": {"test_system": "Escherichia coli", "assay": "Inhibition of growth of Escherichia coli (CN314) measured as MIC compound/MIC Trimethoprim", "assay_type": "functional"}}}
{"smiles": "CC(C)c1cc(Cc2cnc(N)nc2N)cc(C(C)C)c1O", "values": [{"measurement": "Concentration", "setting": "Rattus norvegicus [1]", "value": 0.1, "unit": "µg/g"}, {"measurement": "MIC ratio", "setting": "Staphylococcus aureus", "value": 10}, {"measurement": "Concentration", "setting": "Rattus norvegicus [2]", "value": 5.14, "unit": "µg/g"}, {"measurement": "Concentration", "setting": "Rattus norvegicus [3]", "value": 1.93, "unit": "µg/g"}, {"measurement": "Concentration", "setting": "Rattus norvegicus [4]", "value": 17.4, "unit": "µg/g"}, {"measurement": "Concentration", "setting": "Rattus norvegicus [5]", "value": 0.91, "unit": "µg/g"}, {"measurement": "Concentration", "setting": "Rattus norvegicus [6]", "value": 1.84, "unit": "µg/g"}, {"measurement": "Concentration", "setting": "Rattus norvegicus [7]", "value": 0.47, "unit": "µg/g"}, {"measurement": "Concentration", "setting": "Rattus norvegicus [8]", "value": 387, "unit": "µg/g"}, {"measurement": "Concentration", "setting": "Rattus norvegicus [9]", "value": 158, "unit": "µg/g"}, {"measurement": "Concentration", "setting": "Rattus norvegicus [10]", "value": 23.1, "unit": "µg/g"}, {"measurement": "Concentration", "setting": "Rattus norvegicus [11]", "value": 2.06, "unit": "µg/g"}, {"measurement": "Concentration", "setting": "Rattus norvegicus [12]", "value": 304, "unit": "µg/g"}, {"measurement": "Concentration", "setting": "Rattus norvegicus [13]", "value": 0.23, "unit": "µg/g"}, {"measurement": "Concentration", "setting": "Rattus norvegicus [14]", "value": 0.15, "unit": "µg/g"}, {"measurement": "Concentration", "setting": "Rattus norvegicus [15]", "value": 26, "unit": "µg/g"}, {"measurement": "Concentration", "setting": "Rattus norvegicus [16]", "value": 2.31, "unit": "µg/g"}, {"measurement": "MIC ratio", "setting": "Klebsiella pneumoniae", "value": 300}, {"measurement": "MIC", "setting": "Neisseria gonorrhoeae", "value": 9.2, "unit": "µM"}, {"measurement": "Concentration", "setting": "Rattus norvegicus [17]", "value": 1.55, "unit": "µg/g"}, {"measurement": "Concentration", "setting": "Rattus norvegicus [18]", "value": 1.49, "unit": "µg/g"}, {"measurement": "Concentration", "setting": "Rattus norvegicus [19]", "value": 2.36, "unit": "µg/g"}, {"measurement": "Concentration", "setting": "Rattus norvegicus [20]", "value": 1.13, "unit": "µg/g"}, {"measurement": "Concentration", "setting": "Rattus norvegicus [21]", "value": 0.92, "unit": "µg/g"}, {"measurement": "Concentration", "setting": "Rattus norvegicus [22]", "value": 0.65, "unit": "µg/g"}, {"measurement": "Concentration", "setting": "Rattus norvegicus [23]", "value": 0.71, "unit": "µg/g"}, {"measurement": "Concentration", "setting": "Rattus norvegicus [24]", "value": 10.3, "unit": "µg/g"}, {"measurement": "Concentration", "setting": "Rattus norvegicus [25]", "value": 0.61, "unit": "µg/g"}, {"measurement": "Concentration", "setting": "Rattus norvegicus [26]", "value": 7.17, "unit": "µg/g"}, {"measurement": "Concentration", "setting": "Rattus norvegicus [27]", "value": 1.07, "unit": "µg/g"}, {"measurement": "Concentration", "setting": "Rattus norvegicus [28]", "value": 112, "unit": "µg/g"}, {"measurement": "Concentration", "setting": "Rattus norvegicus [29]", "value": 0.67, "unit": "µg/g"}, {"measurement": "Concentration", "setting": "Rattus norvegicus [30]", "value": 0.34, "unit": "µg/g"}, {"measurement": "Concentration", "setting": "Rattus norvegicus [31]", "value": 0.68, "unit": "µg/g"}, {"measurement": "Concentration", "setting": "Rattus norvegicus [32]", "value": 0.44, "unit": "µg/g"}, {"measurement": "Concentration", "setting": "Rattus norvegicus [33]", "value": 8.31, "unit": "µg/g"}, {"measurement": "MIC ratio", "setting": "Escherichia coli", "value": 300}]}
